Experimental data reported in US11344510B2, “Arylcyclohexylamine derivatives and their use in the treatment of psychiatric disorders” (Gilgamesh Pharmaceuticals, Inc., priority 2019, dated 2022).

Columns and labels:
[1] = RLM stability (Low Activity); type: in vitro ADME, Sprague Dawley rats; details: male, Sprague Dawley, rat, liver microsomes, pH 7.4, Condition 1 (Low Activity), 0.50 mg protein/mL
Outline: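 Pooled male Sprague Dawley rat liver microsomes (0.50 mg/mL) in PBS pH 7.4 with 1 mM MgCl2 and 1 mM NADPH; compound 1 μM, 1.0% solvent, 37° C. Six time points over 60 min, parent remaining by LC-MS/MS; kel, t1/2 and Clint from linear regression of ln(AUC) versus time.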

[2] = MLM stability (Low Activity); type: in vitro ADME, CD-1 mice; details: male, CD-1, mouse, liver microsomes, pH 7.4, Condition 1 (Low Activity), 0.50 mg protein/mL
Outline: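 Pooled male CD-1 mouse liver microsomes (0.50 mg/mL) with 1 μM compound and 1 mM NADPH in 100 mM PBS pH 7.4 with 1 mM MgCl2, 37 °C, six time points over 60 min. Parent remaining by LC-MS/MS; kel, t1/2 and Clint from linear regression of ln(AUC) versus time.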

NET = biological target: T1, NET (Homo sapiens, UniProt P23975); test: NET radioligand binding with [3H]nisoxetine
T1 construct: expressed in transfected cells; host or cells: HEK293
Method: (§1) Radioligand Binding. Affinity of the test compounds for SERT, NET, and DAT was determined in radioligand binding experiments with [^3H]imipramine, [^3]nisoxetine, and [^3H]WIN35,428, respectively, by WuXi AppTec (Hong Kong) Limited, under the conditions described in Table 15.

SERT = biological target: T2, SERT (Homo sapiens, UniProt P31645); test: SERT radioligand binding with [3H]imipramine
T2 construct: expressed in transfected cells; host or cells: HEK293
Method: as §1

DAT = biological target: T3, DAT (Homo sapiens, UniProt Q01959); test: DAT radioligand binding with [3H]WIN35,428
T3 construct: expressed in transfected cells; host or cells: CHO (uptake)
Method: as §1

[3] = Exposure after intraperitoneal administration in mice; type: in vivo; details: CD-1 mice; for Cmax and AUC compared to ketamine at 10 mg/kg: plasma and brain; for AUC(0-inf) / Cmax: male, mouse
Method: Animals. Male CD-1 mice were used in these studies Animals were randomly assigned to treatment groups and were fasted for 4 h before dosing.
Drugs. Test compounds (HCl salts) were dissolved in de-ionized water and administered intraperitoneally (ip) at the indicated doses (calculated based on freebase) and at a volume of 5 mL/kg body weight. Compounds were tested as the racemates (indicated by “rac” nomenclature) or pure enantiomers (indicated by “R” or “S” nomenclature), as indicated.
Pharmacokinetics. Blood samples were collected under 2,2,2-tribromoethanol anesthesia (150 mg/kg, ip) from the orbital sinus at 0.083, 0.25, 0.5, 1, and 2 h (ketamine, 4 animals per time point) or 0.083, 0.25, 0.5, 1, 2, 4, and 8 h (14R and 14S, 4 animals per time point) into microcontainers containing K2EDTA Immediately after collection of blood, mice were euthanized by cervical dislocation and brain samples were collected at the same time points. All samples were immediately processed, flash-frozen, and stored at −70° C. until subsequent analysis. Plasma samples were separated by centrifugation of whole blood and aliquots (50 μL) were mixed with 200 μL, of internal standard solution (400 ng/mL in 1:1 v/v CH3CN:MeOH). After mixing by pipetting and centrifuging for 4 min at 6000 rpm, 0.5 μL of each supernatant was analyzed for drug using a fit-for-purpose liquid chromatography-tandem mass spectrometry (LC-MS/MS) method, with authentic samples of each analyte used for calibration and identification. Brain samples (weight 200 mg±1 mg) were dispersed in 800 μL of internal standard solution (400 ng/mL in 4:1 v/v MeOH:water) using zirconium oxide beads (115 mg±5 mg) in The Bullet Blender® homogenizer for 30 s at speed 8. After homogenization, the samples were centrifuged for 4 min at 14,000 rpm and 0.5 μL of each supernatant was analyzed for drug using a fit-for-purpose LC-MS/MS method, with authentic samples of each analyte used for calibration and identification.
Data Analysis. The drug concentrations of samples below the lower limit of quantitation (LLOQ) were designated as zero. Pharmacokinetic data analysis was performed using noncompartmental, bolus injection or extravascular input analysis models in WinNonlin 5.2 (PharSight). Data points below LLOQ were presented as missing to improve validity of t112 calculations.

T1 sequence (P23975 whole entry, species assumed): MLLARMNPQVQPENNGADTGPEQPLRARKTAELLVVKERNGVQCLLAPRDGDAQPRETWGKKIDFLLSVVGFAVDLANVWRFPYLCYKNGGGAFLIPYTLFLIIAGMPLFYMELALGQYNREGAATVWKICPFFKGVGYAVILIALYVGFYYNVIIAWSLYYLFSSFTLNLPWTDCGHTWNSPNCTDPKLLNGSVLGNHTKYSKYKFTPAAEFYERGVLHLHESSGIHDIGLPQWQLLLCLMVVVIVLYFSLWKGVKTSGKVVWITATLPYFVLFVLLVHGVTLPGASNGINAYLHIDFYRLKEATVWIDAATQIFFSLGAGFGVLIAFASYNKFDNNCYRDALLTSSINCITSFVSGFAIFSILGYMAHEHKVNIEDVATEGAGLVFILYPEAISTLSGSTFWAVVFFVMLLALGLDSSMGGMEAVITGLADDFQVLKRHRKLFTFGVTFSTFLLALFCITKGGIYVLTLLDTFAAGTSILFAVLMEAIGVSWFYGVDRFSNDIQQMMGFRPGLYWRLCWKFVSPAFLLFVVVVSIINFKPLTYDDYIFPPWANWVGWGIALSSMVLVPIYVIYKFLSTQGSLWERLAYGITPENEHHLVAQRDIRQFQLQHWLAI
T3 sequence (Q01959 whole entry, species assumed): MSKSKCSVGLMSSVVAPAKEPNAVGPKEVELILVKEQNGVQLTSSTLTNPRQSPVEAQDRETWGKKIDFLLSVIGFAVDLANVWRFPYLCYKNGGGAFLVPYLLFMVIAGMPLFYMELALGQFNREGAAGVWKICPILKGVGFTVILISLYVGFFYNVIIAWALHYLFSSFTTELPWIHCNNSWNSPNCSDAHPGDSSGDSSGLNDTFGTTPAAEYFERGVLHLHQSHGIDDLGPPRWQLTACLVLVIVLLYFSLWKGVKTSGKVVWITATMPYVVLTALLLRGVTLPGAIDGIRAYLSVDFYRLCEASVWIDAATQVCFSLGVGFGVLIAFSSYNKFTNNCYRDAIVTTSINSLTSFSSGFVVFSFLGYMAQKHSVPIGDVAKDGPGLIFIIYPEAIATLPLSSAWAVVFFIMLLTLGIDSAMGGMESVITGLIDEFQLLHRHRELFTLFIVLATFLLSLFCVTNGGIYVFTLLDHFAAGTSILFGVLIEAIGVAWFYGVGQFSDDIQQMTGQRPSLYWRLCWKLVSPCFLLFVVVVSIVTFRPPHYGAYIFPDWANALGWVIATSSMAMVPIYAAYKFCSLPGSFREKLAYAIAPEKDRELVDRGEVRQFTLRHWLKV
T2 sequence (P31645 whole entry, species assumed): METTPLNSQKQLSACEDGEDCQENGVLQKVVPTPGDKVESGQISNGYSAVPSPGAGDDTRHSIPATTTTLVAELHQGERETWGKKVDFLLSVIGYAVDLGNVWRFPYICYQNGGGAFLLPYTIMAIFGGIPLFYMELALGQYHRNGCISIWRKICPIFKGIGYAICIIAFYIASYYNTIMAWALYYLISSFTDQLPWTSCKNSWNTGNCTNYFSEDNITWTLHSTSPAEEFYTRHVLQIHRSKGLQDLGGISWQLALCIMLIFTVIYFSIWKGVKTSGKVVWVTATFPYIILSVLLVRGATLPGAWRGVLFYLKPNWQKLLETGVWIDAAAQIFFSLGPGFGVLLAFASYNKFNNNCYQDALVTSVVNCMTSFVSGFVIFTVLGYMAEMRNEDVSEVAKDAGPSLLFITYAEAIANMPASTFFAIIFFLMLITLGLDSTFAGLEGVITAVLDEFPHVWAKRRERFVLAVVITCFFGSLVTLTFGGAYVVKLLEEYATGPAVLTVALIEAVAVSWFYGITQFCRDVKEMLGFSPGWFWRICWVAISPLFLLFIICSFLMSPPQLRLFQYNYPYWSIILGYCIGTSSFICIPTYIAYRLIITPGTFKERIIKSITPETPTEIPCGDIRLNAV

Compound	half-life at 1 μM [1] [min]	microsomal CLint at 1 μM [1] [µL/min/mg]	half-life at 1 μM [2] [min]	microsomal CLint at 1 μM [2] [µL/min/mg]	Ki (NET) [µM]	Ki (SERT) [nM]	Ki (DAT) [µM]	also measured
Cc1ccccc1[C@]1(N)CCCCC1=O [Compound 114R, (R)-2-amino-2-(o-tolyl)cyclohexan-1-one]	27.6	50.3	43.7	31.7				
Cc1ccccc1[C@@]1(N)CCCCC1=O [Compound 114S, (S)-2-amino-2-(o-tolyl)cyclohexan-1-one]	25.4	54.5	80.9	17.1				
N[C@]1(c2ccccc2)CCCCC1=O [Compound 11S, (S)-2-amino-2-phenyl-cyclohexan-1-one]			> 145	< 9.6				
O=C1CCCCC1(c1ccccc1)N1CCCC1 (racemic) [Compound 27rac, 2-phenyl-2-(pyrrolidin-1-yl)cyclohexan-1-one]	35.4	39.1			11.5	110	55.1	
O=C1CCCC[C@@]1(c1ccccc1)N1CCC1 [Compound 84S, (S)-2-(azetidin-1-yl)-2-phenyl-cyclohexan-1-one]					53.8	720	91.4	
CN[C@]1(c2ccccc2)CCCCC1=O [Compound 14S, (S)-2-(methylamino)-2-phenylcyclohexan-1-one]						45100		Cmax and AUC compared to ketamine at 10 mg/kg ([3]; 3.16 mg/kg ip): comparable to, or higher than; AUC(0-inf) ([3]; brain, 3.16 mg/kg ip): 1220 ng·h/mL; Cmax ([3]; brain, 3.16 mg/kg ip): 3370 ng/mL; AUC(0-inf) ([3]; plasma, 3.16 mg/kg ip): 385 ng·h/mL; Cmax ([3]; plasma, 3.16 mg/kg ip): 875 ng/mL
N[C@@]1(c2ccccc2)CCCCC1=O [Compound 11R, (R)-2-amino-2-phenyl-cyclohexan-1-one]			> 145	< 9.6				
O=C1CCCC[C@]1(c1ccccc1)N1CCC1 [Compound 84R, (R)-2-(azetidin-1-yl)-2-phenyl-cyclohexan-1-one]					77.8	600	> 94.7	
CNC1(c2ccccc2Cl)CCCCC1=O (racemic) [rac-ketamine, racemic ketamine, reference compound]								AUC(0-inf) ([3]; brain, 10 mg/kg ip): 725 ng·h/mL; Cmax ([3]; brain, 10 mg/kg ip): 2250 ng/mL; AUC(0-inf) ([3]; plasma, 10 mg/kg ip): 382 ng·h/mL; Cmax ([3]; plasma, 10 mg/kg ip): 822 ng/mL
CN[C@@]1(c2ccccc2)CCCCC1=O [Compound 14R, (R)-2-(methylamino)-2-phenylcyclohexan-1-one]						40000		Cmax and AUC compared to ketamine at 10 mg/kg ([3]; 3.16 mg/kg ip): comparable to, or higher than; AUC(0-inf) ([3]; brain, 3.16 mg/kg ip): 2530 ng·h/mL; Cmax ([3]; brain, 3.16 mg/kg ip): 3320 ng/mL; AUC(0-inf) ([3]; plasma, 3.16 mg/kg ip): 703 ng·h/mL; Cmax ([3]; plasma, 3.16 mg/kg ip): 1010 ng/mL; exposure (AUC) to 14R relative to 14S ([3]; same dose, 3.16 mg/kg ip): roughly 2 fold
